Where “and” joins values, the source holds several entries; their conditions need not be identical. Equal values may be shown once.
What was measured:
[1] = tested on: fluoroquinolone-susceptible pathogens in the urine; assay: Concentration of pathogens in the urine of patients with uncomplicated UTIs after a single oral dose; type: in vivo; conditions: for Bacteria per ml urine - hours after dose: 2 hours: 2 hours after oral dose of 300 mg finafloxacin or 250 mg ciprofloxacin; for Bacteria per ml urine - hours after dose: 2 hours / Bacteria per ml urine - hours after dose: 4 hours / Bacteria per ml urine - hours after dose: 8 hours: individual patients, uncomplicated UTI; for Bacteria per ml urine - hours after dose: 4 hours: 4 hours after oral dose of 300 mg finafloxacin or 250 mg ciprofloxacin; for Bacteria per ml urine - hours after dose: 8 hours: 8 hours after oral dose of 300 mg finafloxacin or 250 mg ciprofloxacin
Protocol: Patients with uncomplicated UTIs were treated with an oral dose of 300 mg finafloxacin or 250 mg of ciprofloxacin and the concentrations of the fluoroquinolone-susceptible pathogens in the urine were determined before and 2, 4 and 8 hours after intake of the drugs. (−bacterial titers below 10^3).

[2] = tested on: isolate (pathogen from urine of patients with uncomplicated UTI); assay: MIC of the patients' urine isolates; type: cell-based; conditions: ciprofloxacin MIC of each patient's isolate (patients 1-7, one line per patient)
[3] = tested on: Stenotrophomonas maltophilia clinical isolate; assay: Reduction of viable bacteria after 1 h exposure in broth adjusted to different pH values; type: cell-based; conditions: 1 h of incubation, inoculum 10^6 colony forming units per ml
Protocol: (§1) An overnight inoculum of 10^6 colony forming units per ml broth adjusted to different pH values of different pathogens was exposed to finafloxacin. Bacterial growth was determined before and after 1 h of incubation.

Pseudomonas aeruginosa = assay: as above; type: cell-based; conditions: 1 h of incubation, inoculum 10^6 colony forming units per ml
Protocol: as §1

[4] = Stability of finafloxacin solutions comprising Tris; type: physicochemical; conditions: compositions comprising Tris
Source text: (§2) However, Tris is herein used as solubility enhancing agent. […] Both effects lead to a completely unexpected result. Tris is therefore to be regarded as a specific tool to considerably enhance the solubility of finafloxacin in solutions. By preparing compositions comprising Tris it is possible to dissolve finafloxacin stably in such an amount therein that these compositions can effectively be used as parenteral compositions for the treatment of UTIs.

[5] = Solubility of finafloxacin in the presence of Tris; type: physicochemical; conditions: compared with other buffer substances (e.g. phosphate buffer)
Source text: as §2

[6] = tested on: complicated UTIs or pyelonephritis; assay: Double-blind, randomized clinical study, complicated UTIs or pyelonephritis: treatment success (combined clinical and microbiological response); type: in vivo, patients; conditions: 17 days after start of treatment

SMILES	Bacteria per ml urine - hours after dose: 2 hours [1]	Bacteria per ml urine - hours after dose: 2 hours ([1]; listed as ciprofloxacin)	Bacteria per ml urine - hours after dose: 4 hours [1]	Bacteria per ml urine - hours after dose: 4 hours ([1]; listed as ciprofloxacin)	Bacteria per ml urine - hours after dose: 8 hours [1]	MIC of isolate [Cipro mg/L] [2]	Bacteria per ml urine - hours after dose: 2 hours ([1]; listed as finafloxacin)	time after intake within which pathogens are eradicated in the urine ([1]; oral formulation, patients with uncomplicated UTIs)	number of viable bacteria in the medium reduced by ([3]; pH 5.2)	number of viable bacteria in the medium reduced by ([3]; pH 7.2)	number of viable bacteria in the medium reduced by (Pseudomonas aeruginosa; pH 5.2)	number of viable bacteria in the medium reduced by (Pseudomonas aeruginosa; pH 6.2)	number of viable bacteria in the medium reduced by (Pseudomonas aeruginosa; pH 7.2)	stability of solutions [4]	solubility [5]	treatment success (combined clinical response and microbiological response) ([6]; overall treatment duration 5 days (3 days intravenous 800 mg daily, then oral 800 mg daily))	treatment success (combined clinical response and microbiological response) ([6]; overall treatment duration 10 days (3 days intravenous, then 7 days oral))
O=C(O)c1cn(C2CC2)c2cc(N3CCNCC3)c(F)cc2c1=O [Ciprofloxacin, reference compound]	— (bacterial titers below 10^3) and 2.0 × 10^3 Bacteria per ml urine and 6.1 × 10^4 Bacteria per ml urine	above 10^3 Bacteria per ml urine	— (bacterial titers below 10^3) (2×) and 2.7 × 10^3 Bacteria per ml urine	above 10^3 Bacteria per ml urine	— (bacterial titers below 10^3)	0.012 mg/L (3×) and 0.19 mg/L (2×) and 0.008 mg/L (2×)	–	–	–	–	–	–	–	–	–	–	–
N#Cc1c(N2C[C@@H]3NCCO[C@H]3C2)c(F)cc2c(=O)c(C(=O)O)cn(C3CC3)c12 [Finafloxacin, (−)-8-cyano-1-cyclopropyl-6-fluoro-7-[(4aS,7aS)-hexahydropyrrolo[3,4-B]-1,4-oxazin-6(2H)-yl]-4-oxo-1,4-dihydroquinoline-3-carboxylic acid]	— (bacterial titers below 10^3)	–	— (bacterial titers below 10^3)	–	— (bacterial titers below 10^3)	–	below 10^3 Bacteria per ml urine	≤ 2 h	87.4%	99.8%	98.6%	99.3%	99.9%	long term stability	high solubility	70.3%	67.6%

Reference: patent US10485805B2, “Finafloxacin for use in the treatment of urinary tract infections” (MerLion Pharmaceuticals Pte. Ltd., priority 2015, dated 2019)
